Experimental data as given in publication PMC5524647 (Nature Communications, 2017).
“Also recorded” adds a separate entry of the source.

Columns and labels:
mAb 4C7 [1] = type: binding, mouse; settings: for Kd: read-out: K D of mAb 4C7 binding
mAb 4C7 [2] = type: binding, mouse
mAb 3D11 = type: binding, mouse
mAb 9C1-2 = type: binding, mouse
mAb 4C7 [3] = type: binding, mouse; remark: listed apart in the source
mAb Pp-PS-W = type: binding, mouse
[4] = test system: serum samples from culture-confirmed Thai melioidosis patients; type: binding, human

Compound: CC(=O)OC1C(OC2C(O)C(CO)OC(OCCCCCNC(=O)CCCCCNC(=O)CCCCC3SCC4NC(=O)NC43)C2O)OC(C)C(O)C1OC1OC(CO)C(O)C(O)C1O (stereo not shown) [BIO-2]
- K D of mAb 4C7 binding (mAb 4C7 [1]): no binding
- binding of mAb 4C7 according to sensorgrams (mAb 4C7 [1]): did not interact

Compound: COC1C(O)C(C)OC(OC2C(O)C(CO)OC(OCCCCCNC(=O)CCCCCNC(=O)CCCCC3SCC4NC(=O)NC43)C2O)C1OC(C)=O (stereo not shown) [BIO-6]
- binding of mAb 4C7 according to sensorgrams (mAb 4C7 [1]): bound
- Kd (mAb 4C7 [1]): 22 nM

Compound: COC1C(OC(C)=O)C(C)OC(OC2C(O)C(CO)OC(OCCCCCNC(=O)CCCCCNC(=O)CCCCC3SCC4NC(=O)NC43)C2O)C1OC(C)=O (stereo not shown) [BIO-7]
- binding of mAb 4C7 according to sensorgrams (mAb 4C7 [1]): bound
- Kd (mAb 4C7 [1]): 120 nM

Compound: COC1C(O)C(C)OC(OC2C(O)C(CO)OC(OCCCCCN)C2O)C1OC(C)=O (stereo not shown) [disaccharide 6]
- reactivity with mAb 4C7 (ELISA) (mAb 4C7 [2]): reacted strongly; also recorded: highest recognition
- reactivity with mAb 3D11 (ELISA) (mAb 3D11): reacted strongly
- reactivity with mAb 9C1-2 (ELISA) (mAb 9C1-2): reacted strongly
- normalized STD effect, O-acetyl group (mAb 4C7 [3]): 97%
- normalized STD effect, glucose proton H3 (mAb 4C7 [3]): ~60%
- normalized STD effect, talose H1 (mAb 4C7 [3]): 96%
- normalized STD effect, talose H4 (mAb 4C7 [3]): 88%
- normalized STD effect, talose proton at position 2 (mAb 4C7 [3]): 100%
- normalized STD intensities, glucose protons at positions 4, 5, and 6 (mAb 4C7 [3]): < 50%

Compound: COC1C(OC(C)=O)C(C)OC(OC2C(O)C(CO)OC(OCCCCCN)C2O)C1OC(C)=O (stereo not shown) [disaccharide 7]
- reactivity with mAb Pp-PS-W (ELISA) (mAb Pp-PS-W): reacted strongly
- STD-NMR effects with mAb 4C7 (mAb 4C7 [3]): some STD enhancements were observed; also recorded: Low and not quantifiable STD effects
- STD-NMR signals with mAb 4C7 (mAb 4C7 [3]): did not show any signals
- reactivity of human immune serum samples with the coated antigen [4]: crossreact
